Results on ten compounds are retold here after patent US5635518A, “N-substituted azaheterocyclic carboxylic acids and esters thereof” (Novo Nordisk A/S, priority 1993, dated 1997).

Where a name gives a salt, the structure may show the parent alone.

As a reminder, the IC50 is the midpoint of a concentration-inhibition curve. Low readings indicate greater potency in that assay, high ones weaker potency in that assay.

The subject of assay [1] is GABA uptake. The settings on record: from the synaptic cleft into presynaptic nerve terminals and glial cells; cited from earlier work.
Another assay relates to [^3 H]-GABA uptake. The assay is described as follows: in vitro inhibition of [3H]-GABA uptake, rat cortical tissue homogenate (method of Fjalland). The format is biochemical, Male wistar rat. Conditions: 40 mM tris HCl pH 7.5, 60 minutes at 30° C. The method, then:
Values for in vitro inhibition of [^3 H]-GABA uptake for the invention compounds were assessed essentially by the method of Fjalland (Acta Pharmacol. Toxicol. 1978, 42, 73-76). Male wistar rat cortical tissue was gently homogenized by hand using a glass/PTFE homogenizer in 10 volumes of 0.32M sucrose. Incubation was performed in a 40 mM tris HCl buffer (pH 7.5 at 30° C.) containing […], 4 mM MgSO4, […] and 10 mM glucose, for 60 minutes at 30° C. Values for inhibition of GABA uptake for some representative compounds are recorded in Table I.

For assay [2], the system named is GABA uptake. The settings on record: oral; Yunger, L. M. et al., J. Pharm. Exp. Ther. 1984, 228, 109; cited from earlier work.

Turning to `O=C(O)C1CCCNC1` (stereo not shown) [3-piperidine-carboxylic acid], the “inhibitor of GABA uptake” value in the assay on GABA uptake [1] was “well-known and potent inhibitor of GABA uptake”.

In the case of `O=C(O)[C@@H]1CCCN(CCOc2cccc(-c3ccccc3)c2)C1` [Example 4, (R)-1-(2-(3-Phenylphenoxy)ethyl)-3-piperidinecarboxylic acid hydrochloride], half-maximal inhibition in assay [^3 H]-GABA uptake (IC50) was put at 5.6 µM.

As to `O=C(O)[C@@H]1CCCN(CCOc2ccccc2-c2ccccc2)C1` [Example 5, (R)-1-(2-(2-Phenylphenoxy)ethyl)-3-piperidinecarboxylic acid hydrochloride], inhibition in assay [^3 H]-GABA uptake was half-maximal at 5.6 µM (IC50). With `O=C(O)C1CCCN(CCC=C(c2ccccc2)c2cccs2)C1` (stereo not shown) [SK&F 100604J, N-(4-phenyl-4-(2-thienyl)-3-buten-1-yl)nipecotic acid], the “orally active inhibitor of GABA uptake” value in the assay on GABA uptake [2] was “orally active inhibitors of GABA uptake”. As to `O=C(O)[C@@H]1CCCN(CCCCOc2ccccc2)C1` [Example 2, (R)-1-(4-Phenoxy-1-butyl)-3-piperidinecarboxylic acid hydrochloride], in assay [^3 H]-GABA uptake, it took 24 µM to reach half-maximal inhibition (IC50). The same measure, in the same setting: the same measure for `O=C(O)[C@@H]1CCCN(CCOc2ccccc2Cc2ccccc2)C1` [Example 3, (R)-1-(2-(2-Benzylphenoxy)ethyl)-3-piperidinecarboxylic acid hydrochloride]: 6.7 µM. Consider `O=C(O)CC1CCN(CCC=C(c2ccccc2)c2ccccc2)C1` (stereo not drawn) [SK&F 100561, N-(4,4-diphenyl-3-buten-1-yl)-homo-β-proline], for which, in the assay on GABA uptake [2], the “orally active inhibitor of GABA uptake” value was “orally active inhibitors of GABA uptake”. For `O=C(O)C1=CCCN(CCC=C(c2ccccc2)c2ccccc2)C1` [SK&F 100330A, N-(4,4-diphenyl-3-buten-1-yl)guvacine], the “orally active inhibitor of GABA uptake” value with GABA uptake [2] is “orally active inhibitors of GABA uptake”.

On to `O=C(O)[C@@H]1CCCN(CCOc2ccccc2)C1` [Example 1, (R)-1-(2-Phenoxyethyl)-3-piperidinecarboxylic acid hydrochloride], for which the IC50 in assay [^3 H]-GABA uptake came to 64 µM.

As to `O=C(O)C1CCCN(CCC=C(c2ccccc2)c2ccccc2)C1` (stereo not shown) [SK&F 89976A, N-(4,4-diphenyl-3-buten-1-yl)nipecotic acid], the “orally active inhibitor of GABA uptake” value in the assay with GABA uptake [2] is reported as “orally active inhibitors of GABA uptake”.
